The values below come from patent US12263198B1, “Compositions and methods of improving ruminant performance” (Ralco Nutrition, Inc., priority 2021, dated 2025).

Marks after values point to notes of the source that are not given here.

For this test, the system named is rumen fluid. Put plainly: ANKOM artificial rumen system, dry matter digestibility of hay. The test is classed as cell-based, steers. The following applies: 24 hours. As to the method: This study was conducted to evaluate the feed additive composition in an ANKOM artificial rumen system to compare digestibility of a feed additive of a cobalt lactate/yeast blend, relative to a feed additive of only cobalt lactate and a feed additive of only yeast. In each run, two cannulated steers were used to collect rumen fluid from the two steers at the Ralco Beef Research Farm in Marshall, MN. The rumen fluid was mixed with a buffer solution along with a different feed additive composition in each of three jars and a fourth jar having a control with no treatment. Eight runs were performed at differing amounts of cobalt lactate, yeast, and blends of cobalt lactate and yeast, as shown in each of the tables below. The cobalt lactate used in Runs 1-8 was Microbial Catalyst® from Ralco. The yeast used in Runs 1-8 was Emprove MX from Emmert.
Dacron bags with hay (Barley straw, DM 94.2, CP 5.4, ADF 54.15, NDF 75.6, Neg/cwt 17.7 and Nem/cwt 42.5 respectively) samples were then added to each jar, the jar was purged with CO2 and incubated for 24 hours at 39.5 degrees C. At the end of the 24 hours, the bags were removed, washed with clear tap water and run through the ANKOM fiber analyzer. At that point, the bags were dried and re-weighed, and the weight entered into formulas to give a dry matter digestibility value.
In this study a similar analysis was performed as in Example 5. In this example, Formulation A (used in Runs 6-8) was compared to Product 1 (Diamond V XPC®) and Product 2 (Amaferm® from BioZyme). The protocol used in this example is the same as that provided above for Example 5.

As for `CC(O)C(=O)[O-].CC(O)C(=O)[O-].[Co+2]` (centres unmarked) [cobalt lactate], the DMD is 54.37^b (Run 1, 3.0 g); 57.04^b (Run 2, 6.0 g); 61.87^b (Run 3, 3.0 g); 61.83^c (Run 4, 3.0 g); 64.59^c (Run 5, 3.0 g); 62.41^c (Run 6, 3.0 g). For the same compound, the DMD is, setting by setting: (Run 7, 3.0 g) 62.17^b; (Run 8, 3.0 g) 66.71^c.
